Data taken from patent publication US12673942B2, “Azabicyclyl-substituted heterocycles as fungicides” (Bayer Aktiengesellschaft, priority 2020, dated 2026).

Assay: Measurement of Log P values by HPLC on reversed phase columns (EEC directive 79/831 Annex V.A8)
Assay type: physicochemical
Details: method [a]: LC-UV, acidic range, 0.1% formic acid in water and acetonitrile as eluent
Method: Measurement of Log P values as provided herein was performed according to EEC directive 79/831 Annex V.A8 by HPLC (High Performance Liquid Chromatography) on reversed phase columns with the following methods: • ^[a] Log P value is determined by measurement of LC-UV, in an acidic range, with 0.1% formic acid in water and acetonitrile as eluent (linear gradient from 10% acetonitrile to 95% acetonitrile). • ^[b] Log P value is determined by measurement of LC-UV, in a neutral range, with 0.001 molar ammonium acetate solution in water and acetonitrile as eluent (linear gradient from 10% acetonitrile to 95% acetonitrile). • ^[c] Log P value is determined by measurement of LC-UV, in an acidic range, with 0.1% phosphoric acid and acetonitrile as eluent (linear gradient from 10% acetonitrile to 95% acetonitrile).
If more than one Log P value is available within the same method, all the values are given and separated by “+”. […]

Cc1ccc(CC(CON2C(=O)c3ccccc3C2=O)NC(=O)c2c(Oc3cccc(Cl)c3)nnc3ccccc23)c(C)c1 (racemic) [Compound 3-01, 3-(3-chlorophenoxy)-N-{(2RS)-1-(2,4-dimethylphenyl)-3-[(1,3-dioxo-1,3-dihydro-2H-isoindol-2-yl)oxy]propan-2-yl}cinnoline-4-carboxamide] and C#Cc1cccc(Oc2cnc3ccccc3c2C(=O)N[C@@H](CON2C(=O)c3ccccc3C2=O)Cc2ccc(C)cc2C)c1 (racemic) [Compound 3-03] are within 0.2 log units of each other in chromatographic logP: 4.49 for the first, 4.44 for the second.

Cc1ccc(C[C@H](CON2C(=O)c3ccccc3C2=O)NC(=O)c2c(Oc3cccc(C(F)(F)F)c3)cnc3ccccc23)c(C)c1 (racemic) [Compound 3-02] and C=Cc1cccc(Oc2cnc3ccccc3c2C(=O)N[C@@H](CON2C(=O)c3ccccc3C2=O)Cc2ccc(C)cc2C)c1 (racemic) [Compound 3-05] are within 0.2 log units of each other in chromatographic logP: 4.72 for the first, 4.78 for the second.

Cc1ccc(C[C@H](CON2C(=O)c3ccccc3C2=O)NC(=O)c2c(Oc3cccc(C4CC4)c3F)cnc3ccccc23)c(C)c1 (racemic) [Compound 3-04] and Cc1ccc(C[C@H](CON2C(=O)c3ccccc3C2=O)NC(=O)c2c(Oc3cccc(Br)c3F)cnc3ccccc23)c(C)c1 (racemic) [Compound 3-06] are within 0.2 log units of each other in chromatographic logP: 4.96 for the first, 4.78 for the second.

Compared with C#Cc1cccc(Oc2cnc3ccccc3c2C(=O)N[C@@H](CON2C(=O)c3ccccc3C2=O)Cc2ccc(C)cc2Cl)c1 (racemic) [Compound 3-07], C=Cc1cccc(Oc2cnc3ccccc3c2C(=O)N[C@@H](CON2C(=O)c3ccccc3C2=O)Cc2ccc(C)cc2Cl)c1 (racemic) [Compound 3-08] is higher in chromatographic logP: 4.47 for the first, 4.71 for the second.

Cc1ccc(C[C@H](CON2C(=O)c3ccccc3C2=O)NC(=O)c2c(Oc3cccc(C(F)(F)F)c3)nnc3c2CCCC3)c(C)c1 (racemic) [Compound 3-09] and Cc1ccc(C[C@H](CON2C(=O)c3ccccc3C2=O)NC(=O)c2c(Oc3cccc(C(F)(F)F)c3)nnc3c2CCC3)c(C)c1 (racemic) [Compound 3-12] are within 0.2 log units of each other in chromatographic logP: 4.59 for the first, 4.47 for the second.

Cc1ccc(C[C@H](CON2C(=O)c3ccccc3C2=O)NC(=O)c2c(Oc3cccc(Cl)c3F)nnc3c2CCCC3)c(C)c1 (racemic) [Compound 3-10] and Cc1ccc(C[C@H](CON2C(=O)c3ccccc3C2=O)NC(=O)c2c(Oc3cccc(Br)c3F)nnc3c2CCCC3)c(C)c1 (racemic) [Compound 3-11] are within 0.2 log units of each other in chromatographic logP: 4.47 for the first, 4.51 for the second.

Going from Cc1ccc(C[C@H](CON2C(=O)c3ccccc3C2=O)NC(=O)c2c(Oc3cccc(C(F)F)c3)nnc3c2CCCC3)c(C)c1 (racemic) [Compound 3-13] to Cc1ccc(C[C@H](CON2C(=O)c3ccccc3C2=O)NC(=O)c2c(Oc3cccc(C4CC4)c3F)nnc3c2CCC3)c(C)c1 (racemic) [Compound 3-14], the chromatographic logP rises from 4.13 to 4.56.

First: Cc1ccc(C[C@@H](CON)NC(=O)c2c(Oc3cccc(C(F)(F)F)c3)nnc3cc(C)ccc23)c(C)c1 (racemic) [Compound 4-01]
Second: Cc1ccc(C[C@H](CON)NC(=O)c2c(Oc3cccc(C(F)(F)F)c3)nnc3c2CCC3)c(C)c1 (racemic) [Compound 4-13]
The chromatographic logP of the first is higher: 3.42 for the first, 2.78 for the second.

First: Cc1ccc(C[C@H](CON)NC(=O)c2c(Oc3cccc(C(F)(F)F)c3)cnc3ccccc23)c(C)c1 (racemic) [Compound 4-02]
Second: Cc1ccc(CC(CCl)NC(=O)c2c(Oc3cccc(C(F)(F)F)c3)cnc3ccccc23)c(C)c1 (racemic) [Compound 10-02, N-[(2RS)-1-chloro-3-(2,4-dimethylphenyl)propan-2-yl]-3-[3-(trifluoro-methyl)phenoxy]quinoline-4-carboxamide]
The chromatographic logP of the first is lower: 3.17 for the first, 4.81 for the second.

Cc1ccc(CC(CON)NC(=O)c2c(Oc3cccc(Cl)c3)nnc3ccccc23)c(C)c1 (racemic) [Compound 4-03, N-[(2RS)-1-(aminooxy)-3-(2,4-dimethylphenyl)propan-2-yl]-3-(3-chloro-phenoxy)cinnoline-4-carboxamide] and C#Cc1cccc(Oc2cnc3ccccc3c2C(=O)N[C@@H](CON)Cc2ccc(C)cc2C)c1 (racemic) [Compound 4-04] are within 0.2 log units of each other in chromatographic logP: 2.8 for the first, 2.83 for the second.

Compared with Cc1ccc(C[C@H](CON)NC(=O)c2c(Oc3cccc(C4CC4)c3F)cnc3ccccc23)c(C)c1 (racemic) [Compound 4-05], Cc1ccc(C[C@H](CON)NC(=O)c2c(Oc3cccc(Br)c3F)cnc3ccccc23)c(C)c1 (racemic) [Compound 4-07] is lower in chromatographic logP: 3.31 for the first, 3.11 for the second.

C=Cc1cccc(Oc2cnc3ccccc3c2C(=O)N[C@@H](CON)Cc2ccc(C)cc2C)c1 (racemic) [Compound 4-06] and C=Cc1cccc(Oc2cnc3ccccc3c2C(=O)N[C@@H](CON)Cc2ccc(C)cc2Cl)c1 (racemic) [Compound 4-09] are within 0.2 log units of each other in chromatographic logP: 3.09 for the first, 3.12 for the second.

Compared with C#Cc1cccc(Oc2cnc3ccccc3c2C(=O)N[C@@H](CON)Cc2ccc(C)cc2Cl)c1 (racemic) [Compound 4-08], Cc1ccc(C[C@H](CCl)NC(=O)c2c(Oc3cccc(C(F)F)c3)cnc3ccccc23)c(Cl)c1 (racemic) [Compound 10-05] is higher in chromatographic logP: 2.87 for the first, 4.33 for the second.

Going from Cc1ccc(C[C@H](CON)NC(=O)c2c(Oc3cccc(C(F)(F)F)c3)nnc3c2CCCC3)c(C)c1 (racemic) [Compound 4-10] to Cc1ccc(C[C@H](CON)NC(=O)c2c(Oc3cccc(C(F)F)c3)nnc3c2CCCC3)c(C)c1 (racemic) [Compound 4-14], the chromatographic logP falls from 2.91 to 2.55.

Cc1ccc(C[C@H](CON)NC(=O)c2c(Oc3cccc(Cl)c3F)nnc3c2CCCC3)c(C)c1 (racemic) [Compound 4-11] and Cc1ccc(C[C@H](CON)NC(=O)c2c(Oc3cccc(Br)c3F)nnc3c2CCCC3)c(C)c1 (racemic) [Compound 4-12] are within 0.2 log units of each other in chromatographic logP: 2.7 for the first, 2.75 for the second.

Compared with Cc1ccc(C[C@H](CON)NC(=O)c2c(Oc3cccc(C4CC4)c3F)nnc3c2CCC3)c(C)c1 (racemic) [Compound 4-15], Cc1ccc(CC(CCl)NC(=O)c2c(Oc3cccc(C4CC4)c3F)nnc3ccccc23)c(C)c1 (racemic) [Compound 10-01, N-[(2RS)-1-chloro-3-(2,4-dimethylphenyl)propan-2-yl]-3-(3-cyclopropyl-2-fluorophenoxy)cinnoline-4-carboxamide] is higher in chromatographic logP: 2.83 for the first, 4.73 for the second.

First: Cc1ccc(C[C@@H]2CON=C(c3c(Br)cnc4nccnc34)N2)c(C)c1 (racemic) [Compound 7-01]
Second: Cc1ccc(C[C@H](CCl)NC(=O)c2c(Br)cnc3nccnc23)c(C)c1 (racemic) [Compound 14-01]
The chromatographic logP of the first is lower: 2.41 for the first, 2.97 for the second.

Cc1ccc(C[C@H](N)CCl)c(C)c1 (racemic) [Compound 9-02] and N[C@H](CCl)Cc1ccc(Br)cc1Cl (racemic) [Compound 9-03] are within 0.2 log units of each other in chromatographic logP: 1.24 for the first, 1.37 for the second.

Cc1ccc(C[C@H](CCl)NC(=O)c2c(Oc3cccc(C4CC4)c3F)cnc3ccccc23)c(Cl)c1 (racemic) [Compound 10-03] and Cc1ccc(C[C@H](CCl)NC(=NO)c2c(Oc3cccc(C4CC4)c3F)cnc3ccccc23)c(Cl)c1 (racemic) [Compound 12-02] are within 0.2 log units of each other in chromatographic logP: 5 for the first, 4.93 for the second.

Cc1ccc(C[C@H](CCl)NC(=O)c2c(Oc3cccc(Br)c3F)cnc3ccccc23)c(Cl)c1 (racemic) [Compound 10-04] and Cc1ccc(C[C@H](CCl)NC(=NO)c2c(Oc3cccc(Br)c3F)cnc3ccccc23)c(Cl)c1 (racemic) [Compound 12-03] are within 0.2 log units of each other in chromatographic logP: 4.7 for the first, 4.62 for the second.

Cc1ccc(C[C@H](CCl)NC(=O)c2c(Oc3cccc(C(F)(F)F)c3)cnc3ccoc23)c(C)c1 (racemic) [Compound 10-06] and Cc1ccc(C[C@H](CCl)NC(=NO)c2c(Oc3cccc(C(F)(F)F)c3)cnc3ccoc23)c(C)c1 (racemic) [Compound 12-05] are within 0.2 log units of each other in chromatographic logP: 4.55 for the first, 4.4 for the second.

Going from Cc1ccc(C[C@H](CCl)N/C(=N\O)c2c(Oc3cccc(C4CC4)c3F)nnc3ccccc23)c(C)c1 (racemic) [Compound 12-01, N-[(2RS)-1-chloro-3-(2,4-dimethylphenyl)propan-2-yl]-3-(3-cyclopropyl-2-fluorophenoxy)-N′-hydroxycinnoline-4-carboximidamide] to Cc1ccc(C[C@H](CCl)NC(=NO)c2c(Oc3cccc(C(F)F)c3)cnc3ccccc23)c(Cl)c1 (racemic) [Compound 12-04], the chromatographic logP falls from 4.7 to 4.28.

Going from Cc1ccc(C[C@H](CCl)NC(=NO)c2c(Br)cnc3nccnc23)c(C)c1 (racemic) [Compound 15-01] to Cc1ccc(C[C@@H]2CON=C(c3c(Oc4cccc(C)c4F)cnc4ccccc34)N2)c(C)c1 (racemic) [Compound I-020], the chromatographic logP rises from 2.73 to 4.15.

Going from Cc1ccc(C[C@@H]2CON=C(c3c(Oc4cccc(C5CC5)c4F)cnc4ccccc34)N2)c(Cl)c1 (racemic) [Compound I-021] to C#Cc1cccc(Oc2cnc3ccccc3c2C2=NOC[C@@H](Cc3ccc(C)cc3Cl)N2)c1 (racemic) [Compound I-025], the chromatographic logP falls from 4.55 to 3.91.

Cc1ccc(C[C@@H]2CON=C(c3c(Oc4cccc(C(F)(F)F)c4)nnc4c3CCCC4)N2)c(C)c1 (racemic) [Compound I-022] and Cc1ccc(C[C@@H]2CON=C(c3c(Oc4cccc(Cl)c4F)nnc4c3CCCC4)N2)c(C)c1 (racemic) [Compound I-023] are within 0.2 log units of each other in chromatographic logP: 3.99 for the first, 3.91 for the second.

With Cc1ccc(C[C@@H]2CON=C(c3c(Oc4cccc(Br)c4F)nnc4c3CCCC4)N2)c(C)c1 (racemic) [Compound I-024] the chromatographic logP was 4.01.

In the case of Cc1ccc(C[C@@H](CON)NC(=O)c2c(Oc3cccc(C(F)(F)F)c3)nnc3cc(C)ccc23)c(C)c1 (racemic) [Compound 4-01], the LogP is reported as 3.51.

Same assay, conditions: method [b]: LC-UV, neutral range, 0.001 molar ammonium acetate solution in water and acetonitrile as eluent

Cc1ccc(C[C@@H](CON)NC(=O)c2c(Oc3cccc(C(F)(F)F)c3)nnc3cc(C)ccc23)c(C)c1 (racemic) [Compound 4-01] gave a chromatographic logP of 3.62.
